19 compounds from patent publication US8680159B2, “Bradykinin 1 receptor modulating compounds” (Gruenenthal GmbH, priority 2010, dated 2014) can be followed below.

The target of this assay is T1, B1R receptor of the rat (CHO K1 cells stably transfected with the B1R gene of the rat) (Rattus norvegicus, UniProt P97583).
T1 construct: expressed in transfected cells; host or cells: CHO K1 cells (Chinese hamster ovary), stably transfected
T1 sequence (P97583 1-337): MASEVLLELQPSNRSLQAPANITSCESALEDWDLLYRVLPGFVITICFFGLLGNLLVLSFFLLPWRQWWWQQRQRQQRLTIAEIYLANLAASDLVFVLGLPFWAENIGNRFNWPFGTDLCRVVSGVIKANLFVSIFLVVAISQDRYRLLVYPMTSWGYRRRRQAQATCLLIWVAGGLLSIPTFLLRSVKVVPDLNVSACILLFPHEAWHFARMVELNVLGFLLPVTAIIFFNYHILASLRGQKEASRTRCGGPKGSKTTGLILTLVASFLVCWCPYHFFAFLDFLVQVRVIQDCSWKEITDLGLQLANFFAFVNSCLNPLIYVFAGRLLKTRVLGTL
Kind of assay: Functional study on the bradykinin receptor 1 (B1R), Ca2+ fluorescence (Fluo-4) FLIPR/Novostar assay, rB1R cells. Type of assay: cell-based. The note with it: CHO-K1, 10 μM, read-out: % Inhibition (r-B1R) at 10 μM. The protocol:
The agonistic or antagonistic action of substances can be quantified on the bradykinin receptor 1 (B1R) of the species human and rat using ectopically expressing cell lines (CHO K1 cells) and with the aid of a Ca^2+-sensitive dye (Fluo-4) using a fluorescent imaging plate reader (FLIPR). The indication in % activation is based on the Ca^2+ signal after addition of Lys-Des-Arg^9-bradykinin (0.5 nM) or Des-Arg^9-bradykinin (100 nM). Antagonists lead to suppression of the Ca^2+ influx after the addition of the agonist. % Inhibition compared with the maximum achievable inhibition is indicated.
The agonistic or antagonistic action of substances can be determined on the bradykinin receptor 1 (B1R) of the species human and rat using the following assay. According to this assay, the increase in intracellular Ca^2+ following administration of a B1R agonist is quantified with the aid of a Ca^2+-sensitive dye (Fluo-4 type, Molecular Probes Europe BV, Leiden, Netherlands) using a Fluorescent Imaging Plate Reader (FLIPR, Molecular Devices, Sunnyvale, USA) and/or using a Novostar (BMG Labtech GmbH, Offenburg, Germany).
Chinese hamster ovary cells (CHO K1 cells) which have been stably transfected with the human B1R gene (hB1R cells) or with the B1R gene of the rat (rB1R cells) are used. For functional studies, the cells are plated out on black 96-well plates having a clear base (BD Biosciences, Heidelberg, Germany or Greiner, Frickenhausen, Germany) in a density of 20,000-35,000 cells/well. The cells are left overnight at 37° C. and with 5% CO2 in culture medium (hB1R cells: Nutrient Mixture Ham's F12, Gibco Invitrogen GmbH, Karlsruhe, Germany or DMEM, Sigma-Aldrich, Taufkirchen, Germany; rB1R cells: D-MEM/F12, Gibco Invitrogen GmbH, Karlsruhe, Germany), with 10 vol. % FBS (fetal bovine serum, Gibco Invitrogen GmbH, Karlsruhe, Germany or PAN Biotech GmbH, Aidenbach, Germany). On the following day, the cells are loaded for 60 minutes at 37° C. with 2.13 μM Fluo-4 (Molecular Probes Europe BV, Leiden, Netherlands) in HBSS buffer (Hank's buffered saline solution, Gibco Invitrogen GmbH, Karlsruhe, Germany) […] (Sigma-Aldrich, Taufkirchen, Germany) and 10 mM HEPES (Sigma-Aldrich, Taufkirchen, Germany). The plates are then washed twice with HBSS buffer, and HBSS buffer additionally containing 0.1% BSA (bovine serum albumin; Sigma-Aldrich, Taufkirchen, Germany), 5.6 mM glucose and 0.05% gelatin (Merck KGaA, Darmstadt, Germany) is added to the plates. After incubation for a further 20 minutes at room temperature, the plates are inserted into the FLIPR or Novostar for Ca^2+ measurement. Alternatively, washing is carried out with buffer A (15 mM HEPES, 80 mM NaCl, 5 mM KCl, 1.2 mM CaCl2, 0.7 mM MgSO4, 2 g/l glucose, 2.5 mM probenecid) followed by loading with buffer A with added 2.5 μM Fluo-4 and 0.025% Pluronic F127 (Sigma-Aldrich, Taufkirchen, Germany). The cells are then washed twice with buffer A and incubated for 30 minutes at room temperature with buffer A additionally containing 0.05% BSA and 0.05% gelatin and are then inserted into the FLIPR or Novostar for Ca^2+ measurement. The Ca^2+-dependent fluorescence is measured before and after the addition of substances (λex=488 nm, λem=540 nm). Quantification is carried out by measuring the highest fluorescence intensity (FC, fluorescence counts) over time.
The FLIPR protocol consists of 2 substance additions, which are pipetted in the FLIPR. In the case of measurements using the Novostar, only the second substance addition is pipetted in the device. Both devices measure the fluorescence intensity over time. Test substances (10 μM) are first pipetted onto the cells and the intracellular Ca^2+ increase is compared with the control (hB1R: Lys-Des-Arg^9-bradykinin>=50 nM; rB1R: Des-Arg^9-bradykinin>=1 μM). This gives the % activation, based on the Ca^2+ signal after addition of Lys-Des-Arg^9-bradykinin (>=50 nM) or Des-Arg^9-bradykinin (>=1 μM). […]
In the case of `CN(C(=O)c1ccc2c(c1)C(NC(=O)c1cc(F)ccc1Cl)CC2)C1CCN(c2ccncc2)CC1` (stereo not shown) [CC_H-200, 3-[(2-Chloro-5-fluoro-benzoyl)amino]-N-methyl-N-(1-pyridin-4-yl-piperidin-4-yl)-2,3-dihydro-1H-indene-5-carboxylic acid amide], the inhibition at 10 µM turned out to be 111%.

As to `CN(C(=O)c1ccc2c(c1)C(NC(=O)c1cc(C(F)(F)F)ccc1Cl)CC2)C1CCN(c2ccncc2)CC1` (stereo not shown) [CC_H-201, 3-[[2-Chloro-5-(trifluoromethyl)-benzoyl]amino]-N-methyl-N-(1-pyridin-4-yl-piperidin-4-yl)-2,3-dihydro-1H-indene-5-carboxylic acid amide], the inhibition at 10 µM turned out to be 111%. As for `Cc1ccc(F)c(C(=O)NC2CCc3ccc(C(=O)N(C)C4CCN(c5ccncc5)CC4)cc32)c1Cl` (stereo not shown) [CC_H-202, 3-[(2-Chloro-6-fluoro-3-methyl-benzoyl)amino]-N-methyl-N-(1-pyridin-4-yl-piperidin-4-yl)-2,3-dihydro-1H-indene-5-carboxylic acid amide], the inhibition at 10 µM was 111%.

Regarding `CN(C(=O)c1ccc2c(c1)C(NC(=O)c1cc(Cl)ccc1Cl)CC2)C1CCN(c2ccncc2)CC1` (stereo not shown) [CC_H-203, 3-[(2,5-Dichloro-benzoyl)amino]-N-methyl-N-(1-pyridin-4-yl-piperidin-4-yl)-2,3-dihydro-1H-indene-5-carboxylic acid amide], the inhibition at 10 µM stood at 111%. Consider `CN(C(=O)c1ccc2c(c1)C(NC(=O)c1c(Cl)cccc1C(F)(F)F)CC2)C1CCN(c2ccncc2)CC1` (stereo not shown) [CC_H-204, 3-[[2-Chloro-6-(trifluoromethyl)-benzoyl]amino]-N-methyl-N-(1-pyridin-4-yl-piperidin-4-yl)-2,3-dihydro-1H-indene-5-carboxylic acid amide], for which the inhibition at 10 µM turned out to be 110%. For `CN(C(=O)c1ccc2c(c1)C(NC(=O)C1CC1)CC2)C1CCN(c2ccncc2)CC1` (stereo not shown) [CC_H-205, 3-(Cyclopropanecarbonylamino)-N-methyl-N-(1-pyridin-4-yl-piperidin-4-yl)-2,3-dihydro-1H-indene-5-carboxylic acid amide], the inhibition at 10 µM stood at 98%.

Consider `CN(C(=O)c1ccc2c(c1)C(NC(=O)CC(C)(C)C)CC2)C1CCN(c2ccncc2)CC1` (stereo not shown) [CC_H-206, 3-(3,3-Dimethyl-butanoylamino)-N-methyl-N-(1-pyridin-4-yl-piperidin-4-yl)-2,3-dihydro-1H-indene-5-carboxylic acid amide], for which the inhibition at 10 µM was found to be 109%.

Regarding `COCC(=O)NC1CCc2ccc(C(=O)N(C)C3CCN(c4ccncc4)CC3)cc21` (stereo not shown) [CC_H-207, 3-[(2-Methoxy-acetyl)amino]-N-methyl-N-(1-pyridin-4-yl-piperidin-4-yl)-2,3-dihydro-1H-indene-5-carboxylic acid amide], the inhibition at 10 µM turned out to be 89%. Regarding `CN(C(=O)c1ccc2c(c1)C(N(C)C(=O)c1cc(F)ccc1Cl)CC2)C1CCN(c2ccncc2)CC1` (stereo not shown) [CC_H-208, 3-[(2-Chloro-5-fluoro-benzoyl)-methyl-amino]-N-methyl-N-(1-pyridin-4-yl-piperidin-4-yl)-2,3-dihydro-1H-indene-5-carboxylic acid amide], the inhibition at 10 µM amounted to 111%. Consider `Cc1ccc(F)c(C(=O)N(C)C2CCc3ccc(C(=O)N(C)C4CCN(c5ccncc5)CC4)cc32)c1Cl` (stereo not shown) [CC_H-209, 3-[(2-Chloro-6-fluoro-3-methyl-benzoyl)-methyl-amino]-N-methyl-N-(1-pyridin-4-yl-piperidin-4-yl)-2,3-dihydro-1H-indene-5-carboxylic acid amide], for which the inhibition at 10 µM is 112%. As for `CN(C(=O)c1ccc2c(c1)C(N(C)C(=O)c1cc(Cl)ccc1Cl)CC2)C1CCN(c2ccncc2)CC1` (stereo not shown) [CC_H-210, 3-[(2,5-Dichloro-benzoyl)-methyl-amino]-N-methyl-N-(1-pyridin-4-yl-piperidin-4-yl)-2,3-dihydro-1H-indene-5-carboxylic acid amide], the inhibition at 10 µM was 112%. On to `CN(C(=O)c1ccc2c(c1)C(N(C)C(=O)C1CCCCC1)CC2)C1CCN(c2ccncc2)CC1` (stereo not shown) [CC_H-211, 3-(Cyclohexanecarbonyl-methyl-amino)-N-methyl-N-(1-pyridin-4-yl-piperidin-4-yl)-2,3-dihydro-1H-indene-5-carboxylic acid amide], for which the inhibition at 10 µM was determined as 108%. In the case of `CN(C(=O)c1ccc2c(c1)C(N(C)C(=O)C1CC1)CC2)C1CCN(c2ccncc2)CC1` (stereo not shown) [CC_H-212, 3-(Cyclopropanecarbonyl-methyl-amino)-N-methyl-N-(1-pyridin-4-yl-piperidin-4-yl)-2,3-dihydro-1H-indene-5-carboxylic acid amide], the inhibition at 10 µM came out at 108%.

`CN(C(=O)c1ccc2c(c1)C(N(C)C(=O)CC(C)(C)C)CC2)C1CCN(c2ccncc2)CC1` (stereo not shown) [CC_H-213, 3-(3,3-Dimethyl-butanoyl-methyl-amino)-N-methyl-N-(1-pyridin-4-yl-piperidin-4-yl)-2,3-dihydro-1H-indene-5-carboxylic acid amide]: the inhibition at 10 µM was 110%. To `CC(=O)N(C)C1CCc2ccc(C(=O)N(C)C3CCN(c4ccncc4)CC3)cc21` (stereo not shown) [CC_H-215, 3-(Acetyl-methyl-amino)-N-methyl-N-(1-pyridin-4-yl-piperidin-4-yl)-2,3-dihydro-1H-indene-5-carboxylic acid amide] belongs 65%. As for `CN(C(=O)c1ccc2c(c1)C(N(C)C(=O)c1cccc(C(F)(F)F)c1Cl)CC2)C1CCN(c2ccncc2)CC1` (stereo not shown) [CC_H-216, 3-[[2-Chloro-3-(trifluoromethyl)-benzoyl]-methyl-amino]-N-methyl-N-(1-pyridin-4-yl-piperidin-4-yl)-2,3-dihydro-1H-indene-5-carboxylic acid amide], the inhibition at 10 µM amounted to 110%. Turning to `CN(C(=O)c1ccc2c(c1)C(N(C)C(=O)Nc1ccccc1Cl)CC2)C1CCN(c2ccncc2)CC1` (stereo not shown) [CC_H-217, 3-[[(2-Chlorophenyl)-carbamoyl]-methyl-amino]-N-methyl-N-(1-pyridin-4-yl-piperidin-4-yl)-2,3-dihydro-1H-indene-5-carboxylic acid amide], the inhibition at 10 µM is 94%. The same measure for `CN(C(=O)c1ccc2c(c1)C(N(C)C(=O)Nc1cccc(Cl)c1)CC2)C1CCN(c2ccncc2)CC1` (stereo not shown) [CC_H-218, 3-[[(3-Chlorophenyl)-carbamoyl]-methyl-amino]-N-methyl-N-(1-pyridin-4-yl-piperidin-4-yl)-2,3-dihydro-1H-indene-5-carboxylic acid amide]: 109%. Turning to `CN(C(=O)c1ccc2c(c1)C(N(C)C(=O)Nc1c(Cl)cccc1Cl)CC2)C1CCN(c2ccncc2)CC1` (stereo not shown) [CC_H-219, 3-[[(2,6-Dichloro-phenyl)-carbamoyl]-methyl-amino]-N-methyl-N-(1-pyridin-4-yl-piperidin-4-yl)-2,3-dihydro-1H-indene-5-carboxylic acid amide], the inhibition at 10 µM came to 86%.
